Experimental findings from patent US20040204457A1, “Use of (+)-alpha-(2,3-dimethoxyphenyl)-1-[2-(4-fluorophenyl)ethyl]-4- piperidinemethanol or its prodrug in the treatment of symptoms of dementia and dopamine induced psychosis” (Aventis Pharmaceuticals Inc., priority 2000, published 2004) are described below.

Experiment [1] relates to scopolamine-stimulated locomotion. The experiment can be described thus: scopolamine-stimulated locomotion in rats (60 min activity counts). The class given is in vivo, rat. As to conditions: for antagonism of scopolamine-stimulated locomotion: 0.03-1 mg/kg. As for the experimental part: Cholinergic deficiency states include various neurodegenerative diseases such as Alzheimer's disease, Dementia with Lewy Bodies, Charles Bonnet Syndrome, delirium and Parkinson's disease. Experimental Procedure. All procedures were conducted in normal white light conditions. Rats (1 per box) were first acclimated to test boxes (45×22×20 cm; clear polycarbonate with a plastic top) for 90 minutes. […] Testing commenced immediately. […] Each interruption of a photoelectric light beam was recorded as a single activity count by a microprocessor-based control system. Testing took place between 10:00 a.m. and 5:00 p.m., with all groups counterbalanced for time of testing. The experimenter was blind to treatment group during the experiment.

A further experiment relates to social memory. The experiment can be described thus: social memory test in mice (duration of social interaction, baseline vs retest). In kind it is in vivo. As to conditions: 0.1 and 1 mg/kg.

Procedure for social memory: Male CD-1 mice (30-35 grams) were first acclimated to the test room for approximately 1 hour. […] For the baseline test, unfamiliar pairs of mice were placed into a test chamber (plexiglas mouse cage with sawdust bedding). The duration of social interaction of the two mice (sniffing, anogenital exploration, nosing, grooming, licking, pawing, playing copulatory attempts) was observed and recorded for a period of five minutes and was registered cumulatively as total seconds of contact. Twenty-four hours later, the animals were given a retest without any drug treatment. At the retest, the now familiar partners from the baseline test were placed into the test chamber for a second confrontation and the duration of social interaction was again measured. Social memory was defined as a significant decrease in duration of social contact from baseline to retest. Testing took place in normal white light conditions between the hours of 8:30 am and 3:00 pm. The experimenter was blind to the treatment group until the completion of the experiment. The results represent combined data (n=36 per group total) from two studies. Data were analyzed using the Mann-Whitney test.

Take `COc1cccc([C@H](O)C2CCN(CCc3ccc(F)cc3)CC2)c1OC` [M100907, (+)-isomer of α-(2,3-dimethoxyphenyl)-1-[2-(4-fluorophenyl)ethyl]-4-piperidinemethanol]: the “antagonism of scopolamine-stimulated locomotion” value in experiment [1] was “significantly antagonized”. Further, the “Group mean of 60 min activity count totals” value in experiment [1] (M100907 0.03 + SCOP 0.75, intraperitoneal, n=6) is 3181; in experiment [1] (M100907 0.1 + SCOP 0.75, intraperitoneal, n=6) it was 2378; in experiment [1] (M100907 0.3 + SCOP 0.75, intraperitoneal, n=6) it was 2087; in experiment [1] (M100907 1 + SCOP 0.75, intraperitoneal, n=6) it was 2231. For the same molecule, the “effect on social memory” value in the experiment with social memory is “significantly enhanced”.

With `Cc1nc2n(c(=O)c1CCN1CCC(c3noc4cc(F)ccc34)CC1)CCCC2` [risperidone], the “antagonism of scopolamine-stimulated locomotion” value in experiment [1] is on record as “significantly antagonized”. For the same molecule, the “Group mean of 60 min activity count totals” value is recorded as 4615 in experiment [1] (risperidone 0.03 + SCOP 0.75, intraperitoneal, n=8); 4037 in experiment [1] (risperidone 0.1 + SCOP 0.75, intraperitoneal, n=8); 1795 in experiment [1] (risperidone 0.3 + SCOP 0.75, intraperitoneal, n=8); 772 in experiment [1] (risperidone 1 + SCOP 0.75, intraperitoneal, n=8). For the same molecule, in experiment [1] (risperidone at the two higher doses + scopolamine), the “activity level relative to baseline (vehicle) level” value is given as “reduced activity below baseline level”.
